Experiments:
Test in all cases: In vitro competitive activity-based protein profiling (Table 2, % inhibition at 1 μM)
Format in all cases: biochemical
[1] = target: T1, MAGL (Mus musculus, UniProt O35678); conditions: read-out: % Inhibition at 1 μM MAGL
T1 sequence (O35678 1-303): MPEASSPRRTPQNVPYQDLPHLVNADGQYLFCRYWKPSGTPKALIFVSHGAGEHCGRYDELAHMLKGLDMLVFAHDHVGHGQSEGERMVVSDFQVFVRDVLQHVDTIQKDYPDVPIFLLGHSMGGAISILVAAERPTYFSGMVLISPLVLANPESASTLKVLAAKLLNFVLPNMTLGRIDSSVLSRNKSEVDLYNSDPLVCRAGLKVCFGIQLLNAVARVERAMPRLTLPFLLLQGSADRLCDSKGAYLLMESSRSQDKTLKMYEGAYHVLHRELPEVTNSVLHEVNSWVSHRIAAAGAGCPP
Procedure: After 30 min, FP—Rh (1.0 μL, 50 μM in DMSO) was added and the mixture was incubated for another 30 min at 37° C. Reactions were quenched with SDS loading buffer (50 μL-4×) and run on SDS-PAGE.
Cell lysates were diluted with mock proteomes for use in competitive ABPP experiments.

[2] = target: T2, FAAH (Mus musculus, UniProt O08914); conditions: read-out: % Inhibition at 1 μM FAAH
T2 sequence (O08914 1-579): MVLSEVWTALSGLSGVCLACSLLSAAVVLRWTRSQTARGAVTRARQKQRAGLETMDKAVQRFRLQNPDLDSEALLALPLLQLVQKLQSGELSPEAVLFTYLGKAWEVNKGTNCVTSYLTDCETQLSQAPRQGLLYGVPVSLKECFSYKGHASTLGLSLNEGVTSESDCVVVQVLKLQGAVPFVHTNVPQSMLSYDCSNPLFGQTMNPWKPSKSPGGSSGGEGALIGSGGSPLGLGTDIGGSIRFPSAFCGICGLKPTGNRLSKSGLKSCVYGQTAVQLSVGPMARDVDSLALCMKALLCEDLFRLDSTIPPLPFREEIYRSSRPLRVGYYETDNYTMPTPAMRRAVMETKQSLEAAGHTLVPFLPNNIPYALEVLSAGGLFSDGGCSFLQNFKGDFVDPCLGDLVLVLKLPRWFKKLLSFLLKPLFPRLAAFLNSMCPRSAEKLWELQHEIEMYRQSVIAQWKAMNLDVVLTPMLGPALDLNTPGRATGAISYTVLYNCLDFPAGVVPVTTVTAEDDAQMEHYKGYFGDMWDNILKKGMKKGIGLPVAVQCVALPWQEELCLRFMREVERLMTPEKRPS
Procedure: (§1) After 30 min, FP—Rh (1.0 μL, 50 μM in DMSO) was added and the mixture was incubated for another 30 min at 37° C. Reactions were quenched with SDS loading buffer (50 μL-4×) and run on SDS-PAGE. Following gel imaging, serine hydrolase activity was determined by measuring fluorescent intensity of gel bands corresponding to MAGL, ABHD6 and FAAH using ImageJ 1.43 u software.
(§2) hMAGL was expressed in HEK293T cells according to previously reported methods (see Niphakis, Long, and Blankman, J. L., et al. (2007) Chem. Biol. 14:1347-1356). Cell lysates were diluted with mock proteomes for use in competitive ABPP experiments.

[3] = target: T3, ABHD6 (Mus musculus, UniProt Q8R2Y0); conditions: read-out: % Inhibition at 1 μM ABHD6
T3 sequence (Q8R2Y0 1-336): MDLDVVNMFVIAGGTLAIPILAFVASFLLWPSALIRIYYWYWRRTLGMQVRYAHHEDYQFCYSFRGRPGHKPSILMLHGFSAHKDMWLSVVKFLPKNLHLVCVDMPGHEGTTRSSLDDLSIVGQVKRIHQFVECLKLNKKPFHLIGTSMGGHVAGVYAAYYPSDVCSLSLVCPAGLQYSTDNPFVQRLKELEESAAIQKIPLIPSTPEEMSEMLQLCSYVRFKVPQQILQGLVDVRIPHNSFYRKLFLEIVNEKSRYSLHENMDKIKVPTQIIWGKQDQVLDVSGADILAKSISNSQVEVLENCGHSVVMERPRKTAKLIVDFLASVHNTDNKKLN
Procedure: as §1, §2

CCn1cc(CN2CC3CN(C(=O)OC(C(F)(F)F)C(F)(F)F)CC3C2)c(-c2ccccn2)n1 (stereo not drawn) [Example 70, 1,1,1,3,3,3-Hexafluoropropan-2-yl 5-[[1-ethyl-3-(pyridin-2-yl)-1H-pyrazol-4-yl]methyl]-octahydropyrrolo[3,4-c]pyrrole-2-carboxylate]
inhibition at 1 µM [1]: 25 to 75% | inhibition at 1 µM [2]: < 25% | inhibition at 1 µM [3]: < 25%

O=C(ON1C(=O)CCC1=O)N1CC2CN(Cc3ccc(Cl)cc3N3CCC4(CCNC4=O)CC3)CC2C1 (stereo not drawn) [Example 112, 2,5-Dioxopyrrolidin-1-yl 5-[(4-chloro-2-[1-oxo-2,8-diazaspiro[4.5]decan-8-yl]phenyl)methyl]-octahydropyrrolo[3,4-c]pyrrole-2-carboxylate]
inhibition at 1 µM [1]: 25 to 75% | inhibition at 1 µM [2]: < 25% | inhibition at 1 µM [3]: < 25%

CC(C)n1cc(CN2CC3CN(C(=O)ON4C(=O)CCC4=O)CC3C2)c(-c2ccccc2)n1 (stereo not drawn) [Example 117, 2,5-Dioxopyrrolidin-1-yl 5-[[3-phenyl-1-(propan-2-yl)-1H-pyrazol-4-yl]methyl]-octahydropyrrolo[3,4-c]pyrrole-2-carboxylate]
inhibition at 1 µM [1]: 25 to 75% | inhibition at 1 µM [2]: < 25% | inhibition at 1 µM [3]: 25 to 75%

O=C(ON1C(=O)CCC1=O)N1CC2CN(Cc3ccc(Cl)cc3N3CCN4CCC[C@@H]4C3)CC2C1 (stereo partly drawn) [Example 109, 2,5-Dioxopyrrolidin-1-yl 5-(4-chloro-2-((R)-hexahydropyrrolo[1,2-a]pyrazin-2(1H)-yl)benzyl)-hexahydropyrrolo[3,4-c]pyrrole-2(1H)-carboxylate]
inhibition at 1 µM [1]: < 25% | inhibition at 1 µM [2]: < 25% | inhibition at 1 µM [3]: < 25%

CC(C)c1cc(CN2CC3CN(C(=O)ON4C(=O)CCC4=O)CC3C2)n(C2CCOCC2)n1 (stereo not drawn) [Example 124, 2,5-Dioxopyrrolidin-1-yl 5-[[1-(oxan-4-yl)-3-(propan-2-yl)-1H-pyrazol-5-yl]methyl]-octahydropyrrolo[3,4-c]pyrrole-2-carboxylate]
inhibition at 1 µM [1]: 25 to 75% | inhibition at 1 µM [2]: < 25% | inhibition at 1 µM [3]: < 25%

CC(C)c1cc(CN2CC3CN(C(=O)ON4C(=O)CCC4=O)CC3C2)n(C2CCCCC2)n1 (stereo not drawn) [Example 123, 2,5-Dioxopyrrolidin-1-yl 5-[[1-cyclohexyl-3-(propan-2-yl)-1H-pyrazol-5-yl]methyl]-octahydropyrrolo[3,4-c]pyrrole-2-carboxylate]
inhibition at 1 µM [1]: 25 to 75% | inhibition at 1 µM [2]: < 25% | inhibition at 1 µM [3]: > 75%

O=C(ON1C(=O)CCC1=O)N1CC2CN(Cc3ccc(Cl)cc3N3CCC(C(=O)N4CCCC4)CC3)CC2C1 (stereo not drawn) [Example 111, 2,5-Dioxopyrrolidin-1-yl 5-[(4-chloro-2-[4-[(pyrrolidin-1-yl)carbonyl]piperidin-1-yl]phenyl)methyl]-octahydropyrrolo[3,4-c]pyrrole-2-carboxylate]
inhibition at 1 µM [1]: 25 to 75% | inhibition at 1 µM [2]: < 25% | inhibition at 1 µM [3]: < 25%

Cc1cc(CN2CC3CN(C(=O)ON4C(=O)CCC4=O)CC3C2)n(C(C)C)n1 (stereo not drawn) [Example 121, 2,5-Dioxopyrrolidin-1-yl 5-[[3-methyl-1-(propan-2-yl)-1H-pyrazol-5-yl]methyl]-octahydropyrrolo[3,4-c]pyrrole-2-carboxylate]
inhibition at 1 µM [1]: < 25% | inhibition at 1 µM [2]: < 25% | inhibition at 1 µM [3]: < 25%

Cc1c(CN2CC3CN(C(=O)ON4C(=O)CCC4=O)CC3C2)cccc1N1CCN(C)CC1 (stereo not drawn) [Example 145]
inhibition at 1 µM [1]: < 25% | inhibition at 1 µM [2]: < 25% | inhibition at 1 µM [3]: < 25%

CC(=O)N1CCN(c2cc(Cl)ccc2CN2CC3CN(C(=O)ON4C(=O)CCC4=O)CC3C2)CC1 (stereo not drawn) [Example 96, 2,5-Dioxopyrrolidin-1-yl 5-[[2-(4-acetylpiperazin-1-yl)-4-chlorophenyl]methyl]-octahydropyrrolo[3,4-c]pyrrole-2-carboxylate]
inhibition at 1 µM [1]: < 25% | inhibition at 1 µM [2]: < 25% | inhibition at 1 µM [3]: < 25%

Reference: patent US9828379B2 (priority 2013, dated 2017)
